Reference: US7288541B2, “Propylcarbamate derivatives as inhibitors of serine and cysteine proteases” (SmithKline Beecham Corporation, priority 2001, dated 2007)

What follows are compounds tested against T1, human cathepsin K (Homo sapiens, UniProt P43235) (assay: Cathepsin K inhibition, fluorogenic substrate Cbz-Phe-Arg-AMC, progress curve method). Conditions: not given.
T1 construct: The proform of cathepsin K was converted to mature cathepsin K by brief exposure to pH 4; made in house; host or cells: baculovirus; Trichoplusia ni High Five cells (virus raised in Sf-9)
T1 sequence (P43235 115-329): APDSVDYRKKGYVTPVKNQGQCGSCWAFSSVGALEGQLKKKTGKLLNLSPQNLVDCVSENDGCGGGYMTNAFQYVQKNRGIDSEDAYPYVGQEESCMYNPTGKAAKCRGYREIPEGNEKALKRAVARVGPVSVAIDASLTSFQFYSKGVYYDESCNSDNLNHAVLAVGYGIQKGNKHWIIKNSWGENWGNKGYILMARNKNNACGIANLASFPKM
Assay type: biochemical
Method: All assays for cathepsin K were carried out with human and rat recombinant enzyme. Assays for cathepsins S & V were also carried out with human recombinant enzyme. Assays for human cathepsins B, H, and L were carried out with enzyme prepared from human liver tissue. […] A stock substrate solution of Cbz-Phe-Arg-AMC was prepared at a concentration of 50 mM in dimethyl sulfoxide. This substrate was diluted into the assay for a final substrate concentration of 10 μM in the rat cathepsin K, human cathepsin K, and human cathepsin B assays; a final substrate concentration of 5 μM in the human cathepsin L assay; and a final substrate concentration of 2 μM in the human cathepsin V assay.
All assays contained 10% dimethyl sulfoxide. […] All assays were conducted at 30° C. Product fluorescence (excitation at 360 nm; emission at 440 nm, (except cathepsin H which used excitation at 340 nm; emission at 420 nm)) was monitored with a PerSeptive Biosystems Cytofluor II fluorescence plate reader. Product progress curves were generated over 2.3 h monitoring the formation of 7-amino-4-methylcoumarin product (or β-naphthalamide for cathepsin H).
Human and Rat Cathepsin K:
The cells continued to grow for 72 h post-infection, before the virus was harvested by centrifugation at 1400×g for 30 min.
One and one-half liters of Trichoplusia ni (T. ni) High Five (TM) cells [JRH Biosciences, Woodland, Calif. […] The cells were grown for 24 h at 28° C., 50 RPM, and 50% dissolved oxygen. […] Media were separated from cells at a rate of 1 L/min using the Centritech 100 (TM) continuous-flow centrifuge (DuPont) operating at 200×g.
Protein Purification: Media (human and rat) were filtered through a Whatman 3 filter, and then loaded onto a 25 mL Poros HS II (26 mm×47 mm) cation exchange column equilibrated in 25 mM sodium acetate at pH 5.5 (equilibration buffer). The column was washed until the absorbance reached the baseline value, and then the protein was eluted with a linear gradient from 0–2 M sodium chloride in the equilibration buffer. Column fractions were analyzed by SDS-PAGE, N-terminal sequencing, and mass spectrometry. Fractions containing the proform of cathepsin K were pooled and frozen at −80° C. The proform was concentrated in an Amicon Centriprep 10 and fractionated with a Superdex 75 column (26 mm×600 mm, Pharmacia) equilibrated in 400 mM sodium chloride, 25 mM sodium acetate at pH 5.5.
Cathepsin K Activation: The proform of cathepsin K was converted to mature cathepsin K by brief exposure to pH 4 in the presence of 5 mM L-cysteine. Typically, 5 mM L-cysteine was added to 10 mL of approximately 1 mg/mL procathepsin K. One mL of this solution was diluted ten-fold into 450 mM sodium acetate at pH 4.0 containing 5 mM L-cysteine. This solution was reacted at 23° C. for 2 min before neutralization with 2 mL 1.8 M sodium acetate at pH 6.0. The neutralized sample was added to the remaining 9 mL of procathepsin K. The mixture was incubated at 4° C. for 2–3 days. The activated cathepsin K was chromatographed on a Poros HS II column as described above.
Potential inhibitors were evaluated using the progress curve method. Assays were carried out in the presence of variable concentrations of test compound. Reactions were initiated by addition of buffered solutions of inhibitor and substrate to enzyme. Data analysis was conducted according to one of two procedures depending on the appearance of the progress curves in the presence of inhibitors. […] Ki values were calculated from IC50 values using equation 2 assuming a competitive model.

Row | IC50 | SMILES
1 | 1000 to 10000 nM | CCCC[C@H](NC(=O)O[C@H](Cn1ccc(-c2ccc(C(F)(F)F)cc2)n1)C(C)(C)C)C(=O)CNC(=O)N1CCOCC1 [Example 4, (1S)-2,2-dimethyl-1-({3-[4-(trifluoromethyl)phenyl]-1H-pyrazol-1-yl}methyl)propyl (1S)-1-{[(4-morpholinylcarbonyl)amino]acetyl}pentylcarbamate]

Same assay, conditions: Table 1, Inhibition of Cathepsin K (Ki in nM); recombinant human enzyme, 10 μM substrate, pH 5.5, 30° C.; read-out: hCat K IC50

Row | IC50 | SMILES
2 | < 10 nM | CCCC[C@H](NC(=O)O[C@H](Cn1cnc2cc(Cl)c(Cl)cc21)C(C)(C)C)C(=O)CNS(=O)(=O)c1ccccn1 [Example 15, (1S)-1-[(5,6-dichloro-1H-benzimidazol-1-yl)methyl]-2,2-dimethylpropyl (1S)-1-{[(2-pyridinylsulfonyl)amino]acetyl}pentylcarbamate]
3 | 10 to 100 nM | CCCC[C@H](NC(=O)O[C@H](Cn1ccc(-c2ccc(C(F)(F)F)cc2)n1)C(C)(C)C)C(=O)CNS(=O)(=O)c1ccccn1 [Example 3, (1S)-2,2-dimethyl-1-({3-[4-(trifluoromethyl)phenyl]-1H-pyrazol-1-yl}methyl)propyl (1S)-1-{[(2-pyridinylsulfonyl)amino]acetyl}pentylcarbamate]
4 | 10 to 100 nM | CC(C)(C)[C@@H](Cn1ccc(-c2ccc(C(F)(F)F)cc2)n1)OC(=O)NCC(=O)CNS(=O)(=O)c1ccccn1 [Example 1, (1S)-2,2-dimethyl-1-({3-[4-(trifluoromethyl)phenyl]-1H-pyrazol-1-yl}methyl)propyl 2-oxo-3-[(2-pyridinylsulfonyl)amino]propylcarbamate]
5 | 10 to 100 nM | CCCC[C@H](NC(=O)O[C@H](Cn1ccc(C(F)(F)F)n1)C(C)(C)C)C(=O)CNS(=O)(=O)c1ccccn1 [Example 7, (1S)-2,2-dimethyl-1-{[3-(trifluoromethyl)-1H-pyrazol-1-yl]methyl}propyl (1S)-1-{[(2-pyridinylsulfonyl)amino]acetyl}pentylcarbamate]
6 | < 10 nM | CCCC[C@H](NC(=O)O[C@H](Cn1ccc(-c2ccncc2)n1)C(C)(C)C)C(=O)CNS(=O)(=O)c1ccccn1 [Example 14, (1S)-2,2-dimethyl-1-{[3-(4-pyridinyl)-1H-pyrazol-1-yl]methyl}propyl (1S)-1-{[(2-pyridinylsulfonyl)amino]acetyl}pentylcarbamate]
7 | < 10 nM | CCCC[C@H](NC(=O)O[C@H](Cn1ccc(-c2cccnc2)n1)C(C)(C)C)C(=O)CNS(=O)(=O)c1ccccn1 [Example 13, (1S)-2,2-dimethyl-1-{[3-(3-pyridinyl)-1H-pyrazol-1-yl]methyl}propyl (1S)-1-{[(2-pyridinylsulfonyl)amino]acetyl}pentylcarbamate]
8 | 10 to 100 nM | CCCC[C@H](NC(=O)O[C@H](Cn1cc(-c2ccc(C(F)(F)F)cc2)cn1)C(C)(C)C)C(=O)CNS(=O)(=O)c1ccccn1 [Example 11, (1S)-2,2-dimethyl-1-({4-[4-(trifluoromethyl)phenyl]-1H-pyrazol-1-yl}methyl)propyl (1S)-1-{[(2-pyridinylsulfonyl)amino]acetyl}pentylcarbamate]
9 | < 10 nM | CCCC[C@H](NC(=O)O[C@H](Cn1ccc(-c2ccc(C(F)(F)F)cc2)n1)C(C)(C)C)C(=O)CNc1cccc(F)n1 [Example 5, (1S)-2,2-dimethyl-1-({3-[4-(trifluoromethyl)phenyl]-1H-pyrazol-1-yl}methyl)propyl (1S)-1-{[(6-fluoro-2-pyridinyl)amino]acetyl}pentylcarbamate]
10 | < 10 nM | CCCC[C@H](NC(=O)O[C@H](COc1ccc(-n2ccnc2)cc1)C(C)(C)C)C(=O)CNS(=O)(=O)c1ccccn1 [Example 19, (1S)-1-{[4-(1H-imidazol-1-yl)phenoxy]methyl}-2,2-dimethylpropyl (1S)-1-{[(2-pyridinylsulfonyl)amino]acetyl}pentylcarbamate]
11 | 100 to 1000 nM | C[C@H](NC(=O)O[C@H](c1nc2cc(C(F)(F)F)ccc2s1)C(C)(C)C)C(=O)CNS(=O)(=O)c1ccccn1 [Example 10, (1S)-2,2-dimethyl-1-[5-(trifluoromethyl)-1,3-benzothiazol-2-yl]propyl (1S)-1-methyl-2-oxo-3-[(2-pyridinylsulfonyl)amino]propylcarbamate]
